Reference: patent US8435984B2, “Tertiary amine substituted peptides useful as inhibitors of HCV replication” (Achillion Pharmaceuticals, Inc., priority 2007, dated 2013)

What follows are molecules tested on HCV replicon (assay: HCV replicon replication assay (NPT ELISA) in Huh-7 replicon-containing cells). Settings: Hepatitis C virus, 72 h; inhibition of HCV replicon replication, Huh-7 HCV replicon-containing cells, three days.
Format: cell-based, Hepatitis C virus
Description: Compounds claimed herein are tested for the ability to inhibit viral replication of the Hepatitis C replicon in cultured cells in which the HCV replicon construct has been incorporated. The HCV replicon system was described by Bartenschlager, et. al (Science, 285, pp. 110-113 (1999)). The replicon system is predictive of in vivo anti-HCV activity; compounds that are active in humans uniformly evidence activity in the replicon assay.
In this assay HCV replicon containing cells are treated with different concentrations of the test compound to ascertain the ability of the test compound to suppress replication of the HCV replicon. As a positive control, HCV replicon-containing cells are treated with different concentrations of interferon alpha, a known inhibitor of HCV replication. The replicon assay system includes Neomycin Phosphotransferase (NPT) as a component of the replicon itself in order to detect the transcription of replicon gene products in the host cell. Cells in which the HCV replicon is actively replicating have high levels of NPT; the level of NPT is proportional to HCV replication. […] The NPT level of each sample is measured using a captured ELISA.
The HCV replicon contains, 5′-3′, the HCV-IRES, the neomycin phosphotransferase (neo) gene, the IRES of encephalomyocarditis virus, which directs translation of HCV sequences NS3 to NS5B, and the 3′-NTR. The sequence of the HCV replicon has been deposited in GenBank (Accession no. AJ242652).
The replicon is transfected into Huh-7 cells using standard methods such as electroporation.
HCV replicon-containing cells are rinsed with once PBS once; 2 mls of trypsin are then added. Cells are incubated at 37° C. in a 5% CO2 incubator for 3-5 minutes. 10 mls of complete medium is added to stop the reaction. Cells are blown gently, put into a 15 ml tube, and spun at 1200 rpm for four minutes. The trypsin/medium solution is removed and 5 mls of medium (500 ml DMEM (high glucose)) from BRL catalog #12430-054; 50 mls 10% FBS, 5% Geneticin G418 (50 mg/ml, BRL catalog #10131-035), 5 ml MEM non-essential amino acids (100×BRL #11140-050) and 5 ml pen-strep (BRL #15140-148) is added. The cells and media are mixed carefully
Cells are plated with screening medium (500 ml DMEM (BRL #21063-029), 50 ml FBS (BRL #10082-147) and 5 ml MEM non-essential amino acid (BRL #11140-050) at 6000-7500 cells/100 μl/well of 96 well plate (6-7.5×10^5 cells/10 ml/plate). Plates are placed into 37° C. 5% CO2 incubator overnight. 6D. Assay
The following morning, drugs (test compounds or interferon alpha) are diluted in 96 well U bottom plates with media or DMSO/media, depending on the final concentration chosen for screening. Generally for 6 concentrations of each test compounds ranging from 10 micromolar to 0.03 micromolar are applied. 100 μl of the test compound dilution is placed in wells of the 96 well plate containing the HCV replicon cells. Media without drug is added to some wells as a negative controls. DMSO is known to affect cell growth. Therefore, if drugs diluted in DMSO are used, all wells, including negative control (media only) and positive control (interferon alpha) wells, must contain the same concentration of DMSO, for single dose screening. The plates are incubated at 37° C. in a humidified 5% CO2 environment for three days.
On day four, the NTPII assay is quantitated. The medium is poured from the plates and the plates are washed once in 200 μl of PBS. The PBS is then decanted and the plates tapped in a paper towel to remove any remaining PBS. Cells are fixed in situ with 100 id/well of pre-cooled (−20° C.) methanol:acetone (1:1) and the plates are placed at −20° C. for 30 minutes.
The fixing solution is poured from the plates and the plates allowed to air-dry completely (approximately one hour). The appearance of the dried cell layer is recorded and the density of the cells in the toxic wells is scored with the naked eye. […]
In the case of `CCCC(NC(=O)C1C2CCCC2CN1C(=O)[C@@H](N1CCCCC1)C(C)(C)C)C(=O)C(=O)NC1CC1` (stereo partly drawn) [Compound 47, N-(1-(cyclopropylamino)-1,2-dioxohexan-3-yl)-2-((S)-3,3-dimethyl-2-(piperidin-1-yl)butanoyl)octahydrocyclopenta [c]pyrrole-1-carboxamide], the EC50 is reported as less than 100 µM.
With `CCCC(NC(=O)C1C2CCCC2CN1C(=O)C(c1ccccc1)N1CCCCC1)C(=O)C(=O)NC1CC1` (stereo not drawn) [Compound 36, N-(1-(cyclopropylamino)-1,2-dioxohexan-3-yl)-2-(2-phenyl-2-(piperidin-1-yl)acetyl)octahydrocyclopenta[c] pyrrole-1-carboxamide] the EC50 was less than 100 µM.
In the case of `C=C[C@@H]1C[C@]1(NC(=O)[C@@H]1C[C@@H](Oc2cc(-c3ccccc3)nc3cc(OC)ccc23)CN1C(=O)[C@H](c1ccccc1)N1CCCCC1)C(=O)NS(=O)(=O)C1CC1` [Compound 66, (2S,4R)-N-((1R,2S)-1-(cyclopropylsulfonylcarbamoyl)-2-vinylcyclopropyl)-4-(7-methoxy-2-phenylquinolin-4-yloxy)-1-((S)-2-phenyl-2-(piperidin-1-yl)acetyl)pyrrolidine-2-carboxamide], the EC50 is reported as less than 100 µM.
Molecule `CCCC(NC(=O)C1C2CCCC2CN1C(=O)C(C)N1CCCC1)C(=O)C(=O)NC1CC1` (stereo not drawn) [Compound 40, N-(1-(cyclopropylamino)-1,2-dioxohexan-3-yl)-2-(2-(pyrrolidin-1-yl)propanoyl)octahydrocyclopenta [c]pyrrole-1-carboxamide] has an EC50 of less than 100 µM.
`CCCC(NC(=O)C1C2CCCC2CN1C(=O)C(C)N1CCCCC1)C(=O)C(=O)NC1CC1` (stereo not drawn) [Compound 35, N-(1-(cyclopropylamino)-1,2-dioxohexan-3-yl)-2-(2-(piperidin-1-yl)propanoyl)octahydrocyclopenta [c]pyrrole-1-carboxamide] gave an EC50 of less than 100 µM.
Molecule `CCCC(NC(=O)C1C[C@@H](OC(=O)N2CCc3ccccc3C2)CN1C(=O)C(C)N1CCCC1)C(=O)C(=O)NC1CC1` (stereo partly drawn) [Compound 45, (3R,5S)-S-(1-(cyclopropylamino)-1,2-dioxohexan-3-ylcarbamoyl)-1-(2-(pyrrolidin-l-yl)propanoyl)pyrrolidin-3-yl 3,4-dihydroisoquinoline-2(1H)-carboxylate] has an EC50 greater than 100 µM.
Work on `COc1ccc2c(O[C@@H]3C[C@H]4C(=O)NC5(C(=O)O)CC5/C=C\CCCCC[C@H](N5CCCCC5)C(=O)N4C3)cc(-c3ccccc3)nc2c1` (stereo partly drawn) [Compound 61, (2R,6S,16aS,Z)-2-(7-methoxy-2-phenylquinolin-4-yloxy)-5,16-dioxo-6-(pipcridin-1-yl)-1,2,3,5,6,7,8,9,10,11,13a,14,14a, 15,16,16a-hexadecahydrocyclopropa [e]pyrrolo[1,2-a] [1,4]diazacyclopentadecine-14a-carboxylic acid] yielded an EC50 of less than 100 µM.
`C=CC1CC1(NC(=O)[C@@H]1C[C@@H](Oc2cc(-c3ccccc3)nc3cc(OC)ccc23)CN1C(=O)[C@H](CC(C)C)N1CCCCC1)C(=O)NS(=O)(=O)C1CC1` (stereo partly drawn) [Compound 69, (2S,4R)-N-(1-(cyclopropylsulfonylcarbamoyl)-2-vinylcyclopropyl)-4-(7-methoxy-2-phenylquinolin-4-yloxy)-1-((S)-4-methyl-2-(piperidin-1-yl)pentanoyl)pyrrolidine-2-carboxamide] was tested, and the EC50 was less than 100 µM.
`CCCC(NC(=O)C1C2CCCC2CN1C(=O)[C@@H](NC(=O)OC(C)(C)C)C(C)(C)C)C(=O)C(=O)NC1CC1` (stereo partly drawn) [Compound 39, tert-butyl(2S)-1-(1-(1-(cyclopropylamino)-1,2-dioxohexan-3-ylcarbamoyl)hexahydrocyclopenta[c]pyrrol-2(1H)-yl)-3,3-dimethyl-1-oxobutan-2-ylcarbamate] gave an EC50 of less than 100 µM.
With `C=CC1CC1(NC(=O)[C@@H]1C[C@@H](Oc2cc(-c3ccccc3)nc3cc(OC)ccc23)CN1C(=O)[C@H](c1ccccc1)N1CCCCC1)C(=O)O` (stereo partly drawn) [Compound 56, 1-((2S,4R)-4-(7-methoxy-2-phenylquinolin-4-yloxy)-1-((S)-2-phenyl-2-(piperidin-1-yl)acetyl)pyrrolidine-2-carboxamido)-2-vinylcyclopropanecarboxylic acid] the EC50 was greater than 100 µM.
In the case of `C=C[C@H]1C[C@@]1(NC(=O)[C@@H]1C[C@@H](Oc2cc(-c3ccccc3)nc3cc(OC)ccc23)CN1C(=O)[C@H](c1ccccc1)N1CCCCC1)C(=O)NS(=O)(=O)C1CC1` [Compound 65, (2S,4R)-N-((1S,2R)-1-(cyclopropylsulfonylcarbamoyl)-2-vinylcyclopropyl)-4-(7-methoxy-2-phenylquinolin-4-yloxy)-1-((S)-2-phenyl-2-(piperidin-1-yl)acetyl)pyrrolidine-2-carboxamide], the EC50 is reported as less than 100 µM.
`CCCC(NC(=O)C1C2CCCC2CN1C(=O)[C@H](C(C)C)N1CCCCC1)C(=O)C(=O)NC1CC1` (stereo partly drawn) [Compound 49, N-(1-(cyclopropylamino)-1,2-dioxohexan-3-yl)-2-((S)-3-mcthyl-2-(piperidin-1 - yl)bulanoyl)octahydrocyclopenta [c]pyrrole-1-carboxamide] showed an EC50 of less than 100 µM.
In the case of `C=CC1CC1(NC(=O)[C@@H]1C[C@@H](Oc2cc(-c3ccccc3)nc3cc(OC)ccc23)CN1C(=O)[C@H](C1CCCCC1)N1CCCCC1)C(=O)OCC` (stereo partly drawn) [Compound 53, ethyl 1-((2S,4R)-1-((S)-2-cyclohexyl-2-(piperidin-1-yl)acetyl)-4-(7-methoxy-2-phenylquinolin-4-yloxy)pyrrolidine-2-carboxamido)-2-vinylcyclopropanecarboxylate], the EC50 is reported as less than 100 µM.
Work on `C=CC1CC1(NC(=O)[C@@H]1C[C@@H](Oc2cc(-c3ccccc3)nc3cc(OC)ccc23)CN1C(=O)[C@H](C(C)C)N1CCCCC1)C(=O)OCC` (stereo partly drawn) [Compound 52, ethyl 1-((2S,4R)-4-(7-methoxy-2-phenylquinolin-4-yloxy)-1-((S)-3-methyl-2-(piperidin-1-yl)butanoyl)pyrrolidine-2-carboxamido)-2-vinylcyclopropanecarboxylate] yielded an EC50 of less than 100 µM.
With `C=CC1CC1(NC(=O)[C@@H]1C[C@@H](Oc2cc(-c3ccccc3)nc3cc(OC)ccc23)CN1C(=O)[C@@H](N1CCCCC1)C(C)(C)C)C(=O)O` (stereo partly drawn) [Compound 55, 1-((2S,4R)-1-((S)-3,3-dimethyl-2-(piperidin-1-yl)butanoyl)-4-(7-methoxy-2-phenylquinolin-4-yloxy)pyrrolidine-2-carboxamido)-2-vinylcyclopropanecarboxylic acid] the EC50 was less than 100 µM.
Molecule `CCCC(NC(=O)C1C2CCCC2CN1C(=O)C(C)N1CCCCCC1)C(=O)C(=O)NC1CC1` (stereo not drawn) [Compound 37, 2-(2-(azepan-1-yl)propanoyl)-N-(1-(cyclopropylamino)-1,2-dioxohexan-3-yl)octahydrocyclopenta[c]pyrrole-1-carboxamide] has an EC50 of less than 100 µM.
Molecule `CCOC(=O)C12CC1/C=C\CCCCC[C@H](N1CCCCC1)C(=O)N1C[C@H](Oc3cc(-c4ccccc4)nc4cc(OC)ccc34)C[C@H]1C(=O)N2` (stereo partly drawn) [Compound 60, (2R,6S,16aS,Z)-ethyl 2-(7-methoxy-2-phenylquinolin-4-yloxy)-5,16-dioxo-6-(piperidin-1-yl)-1,2,3,5,6,7,8,9,10,11,13a,14,14a, 15,16,16a-hexadecahydrocyclopropa [e]pyrrolo[1,2-a] [1,4]diazacyclopentadecine-14a-carboxylatc] has an EC50 of less than 100 µM.

Same assay, conditions: inhibition of HCV replicon replication, Huh-7 HCV replicon-containing cells, three days
In the case of `CCCC(NC(=O)C1C2CCCC2CN1C(=O)[C@@H](N1CCCCC1)C(C)(C)C)C(=O)C(=O)NC1CC1` (stereo partly drawn) [Compound 48, N-(1-(cyclopropylamino)-1,2-dioxohexan-3-yl)-2-((S)-3,3-dimethyl-2-(piperidin-1-yl)butanoyl)octahydrocyclopenta [c]pyrrole-1-carboxamide], the EC50 is reported as less than 100 µM.
